Literature values in PMC5907794 (Journal of Medicinal Chemistry, 2018).

Legend:
[1] = ref 60−62
[2] = ref 60−63

- Solubility in aqueous media (in words) [1]: low solubility in aqueous media
SMILES: CC(=O)O[C@H]1C(=O)[C@@]2(C)[C@H]([C@H](OC(=O)c3ccccc3)[C@]3(O)C[C@H](OC(=O)[C@H](O)[C@@H](NC(=O)c4ccccc4)c4ccccc4)C(C)=C1C3(C)C)[C@]1(OC(C)=O)CO[C@@H]1C[C@@H]2O [Paclitaxel, paclitaxel]
- Dose-limiting side effects [2]: severe dose-limiting side effects
